The record followed here is patent publication US10233186B2, “Inhibitors of activin receptor-like kinase” (BLUEPRINT MEDICINES CORPORATION, priority 2016, dated 2019).

Where only a bound is given, the exact number is not on record here.

The target of experiment [1] is T1, ALK2 R206H (GST-tagged mutant ALK2) (Homo sapiens, UniProt Q04771, R206H).
T1 construct: purchased Carna Bioscience or ThermoFisher 09-148 or PV6232
T1 sequence (Q04771 21-509 R206H): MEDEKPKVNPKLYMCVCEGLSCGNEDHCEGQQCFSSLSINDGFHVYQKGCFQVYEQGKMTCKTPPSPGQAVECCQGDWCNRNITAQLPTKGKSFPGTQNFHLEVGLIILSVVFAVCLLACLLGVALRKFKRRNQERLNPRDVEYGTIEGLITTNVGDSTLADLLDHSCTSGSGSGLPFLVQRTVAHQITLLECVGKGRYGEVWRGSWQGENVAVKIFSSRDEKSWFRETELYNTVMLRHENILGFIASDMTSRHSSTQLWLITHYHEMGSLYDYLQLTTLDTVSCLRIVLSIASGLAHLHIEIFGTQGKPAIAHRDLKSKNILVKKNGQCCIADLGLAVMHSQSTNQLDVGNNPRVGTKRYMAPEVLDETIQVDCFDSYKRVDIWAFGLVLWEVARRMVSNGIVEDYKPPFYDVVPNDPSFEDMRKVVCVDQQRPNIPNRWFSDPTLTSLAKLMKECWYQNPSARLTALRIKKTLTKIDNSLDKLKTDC
Briefly: ALK binding assay (LANTHASCREEN TR-FRET competitive binding, displacement of Kinase Tracer 178). To be noted: ALK2 R206H, LANTHASCREEN TR-FRET competitive binding; read-out: Binding Assay (IC50).

The target of experiment [2] is T2, human ALK2 R206H (Homo sapiens, UniProt Q04771, R206H).
T2 construct: expressed in transfected cells; host or cells: HEK293 (ATCC CRL1573), lentivirus transduction, blasticidin selection
T2 sequence (Q04771 21-509 R206H): T1 sequence (Q04771 21-509 R206H)
Briefly: Cell-based ALK2-R206H cell activity assay (Smad1-Ser463/Ser465 phosphorylation by AlphaLISA in HEK293-ALK2-R206H cells). To be noted: read-out: Cell Line (Cell Assay IC50). In a few lines:
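Stable HEK293 cells expressing C-terminally FLAG-tagged human ALK2 R206H (lentiviral, blasticidin-selected) were treated with compounds in 10-point, 3-fold dilutions from 10 μM or 1 μM top, in duplicate. Smad1 Ser463/Ser465 phosphorylation was read by AlphaLISA.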

Take `N[C@@H](CO)c1ccc(-c2cc3c(N4CCN(C(=O)OC5COC5)CC4)ccnn3c2)cc1` [Compound 763]: the values for the IC50 in experiment [1] and in experiment [2] were less than 10 nM and less than 100 nM, respectively.
Regarding `CCOC(=O)N1CCN(c2ccnn3cc(-c4ccc(C(N)C(C)(C)O)cc4)cc23)CC1` (centres unmarked) [Compound 764], the IC50 in experiment [1] is less than 10 nM; in experiment [2], less than 100 nM.
For `NC1(c2ccc(-c3cc4c(N5CCN(C(=O)C6CC6)CC5)ccnn4c3)cc2)CCOCC1` [Compound 768] the same measures were less than 10 nM and less than 100 nM.
For `CC(C)N[C@@H](CO)c1ccc(-c2cc3c(N4CCN(C(=O)C5CC5)CC4)ccnn3c2)cc1` [Compound 770] the same measures were less than 10 nM and less than 100 nM.
For `CC(N)(CO)c1ccc(-c2cc3c(N4CCN(C(=O)OC5COC5)CC4)ccnn3c2)cc1` (centres unmarked) [Compound 771] the same measures were less than 10 nM and less than 100 nM.
Regarding `O=C(OC1COC1)N1CCN(c2ccnn3cc(-c4ccc(C5CCNCC5)cc4)cc23)CC1` [Compound 773], the IC50 is less than 10 nM in experiment [1] and 100 to 500 nM in experiment [2].
As for `O=C(OC1COC1)N1CCN(c2ccnn3cc(-c4ccc([C@@H]5CCCNC5)cc4)cc23)CC1` [Compound 774], the IC50 in experiment [1] is less than 10 nM; in experiment [2] it was less than 100 nM.
With `O=C(OC1COC1)N1CCN(c2ccnn3cc(-c4ccc(N5CCNCC5)cc4)cc23)CC1` [Compound 775], the IC50 in experiment [1] is less than 10 nM; in experiment [2] it was less than 100 nM.
For `O=C(OC1COC1)N1CCN(c2ccnn3cc(-c4ccc(N5CCNCC5)cn4)cc23)CC1` [Compound 776] the same measures were less than 10 nM and less than 100 nM.
On to `CCOC(=O)N1CCN(c2ccnn3cc(-c4ccc([C@]5(OC)CCCNC5)cc4)cc23)CC1` [Compound 777], for which the concentration for half-maximal inhibition (IC50) in experiment [1] is less than 10 nM; in experiment [2] it was less than 100 nM.
For `CCOC(=O)N1CCN(c2ccnn3cc(-c4ccc([C@@]5(OC)CCCNC5)cn4)cc23)CC1` [Compound 778] the same measures were less than 10 nM and less than 100 nM.
As for `CC(C)(O)C(N)c1ccc(-c2cc3c(N4CCN(C(=O)OC5COC5)CC4)ccnn3c2)cc1` (centres unmarked) [Compound 779], the IC50 in experiment [1] is less than 10 nM; in experiment [2], less than 100 nM.
For `CCN[C@@H](CO)c1ccc(-c2cc3c(N4CCN(C(=O)OC5COC5)CC4)ccnn3c2)cc1` [Compound 780] the same measures were less than 10 nM and less than 100 nM.
For `CCOC(=O)N1CCN(c2ccnn3cc(-c4ccc([C@@]5(OCC)CCCNC5)cc4)cc23)CC1` [Compound 782] the same measures were less than 10 nM and less than 100 nM.
For `CCOC(=O)N1CCN(c2ccnn3cc(-c4ccc([C@]5(OCC)CCCNC5)cc4)cc23)CC1` [Compound 783] the same measures were less than 10 nM and less than 100 nM.
Consider `CO[C@]1(c2ccc(-c3cc4c(N5CCN(C(=O)NC(C)C)CC5)ccnn4c3)nc2)CCCNC1` [Compound 784], for which the IC50 in experiment [1] was less than 10 nM; in experiment [2], less than 100 nM.
For `COC1(c2ccc(-c3cc4c(N5CCN(C(=O)NC(C)C)CC5)ccnn4c3)nc2)CCNCC1` [Compound 785] the same measures were less than 10 nM and 100 to 500 nM.
For `CO[C@@]1(c2ccc(-c3cc4c(N5CCN(C(=O)NC(C)C)CC5)ccnn4c3)nc2)CCCNC1` [Compound 786] the same measures were less than 10 nM and less than 100 nM.
For `CCOC(=O)N1CCN(c2ccnn3cc(-c4ccc([C@]5(OCC)CCCNC5)cn4)cc23)CC1` [Compound 787] the same measures were less than 10 nM and less than 100 nM.
With `CCOC(=O)N1CCN(c2ccnn3cc(-c4ccc([C@@]5(OCC)CCCNC5)cn4)cc23)CC1` [Compound 788], the values for the IC50 in experiment [1] and in experiment [2] were less than 10 nM and less than 100 nM, respectively.
For `O=C(OC(CO)CO)N1CCN(c2ccnn3cc(-c4ccc(C5CCNCC5)cc4)cc23)CC1` [Compound 789, 1,3-dihydroxypropan-2-yl 4-(6-(4-(piperidin-4-yl)phenyl)pyrrolo[1,2-b]pyridazin-4-yl)piperazine-1-carboxylate] the same measures were less than 10 nM and more than 500 nM.
For `CC(C)N[C@H](CO)c1ccc(-c2cc3c(N4CCN(C(=O)OC5COC5)CC4)ccnn3c2)cc1` [Compound 791] the same measures were less than 10 nM and less than 100 nM.
For `CC(C)N[C@@H](CO)c1ccc(-c2cc3c(N4CCN(C(=O)OC5COC5)CC4)ccnn3c2)cc1` [Compound 792] the same measures were less than 10 nM and less than 100 nM.
Turning to `[2H]C([2H])([2H])C([2H])([2H])OC(=O)N1CCN(c2ccnn3cc(-c4ccc([C@@]5(OCC)CCCNC5)cn4)cc23)CC1` [Compound 793], the IC50 in experiment [1] is less than 10 nM; in experiment [2], less than 100 nM.
For `[2H]C([2H])([2H])C([2H])([2H])OC(=O)N1CCN(c2ccnn3cc(-c4ccc([C@]5(OCC)CCCNC5)cn4)cc23)CC1` [Compound 794] the same measures were less than 10 nM and less than 100 nM.
For `CC(C)N1CCC(c2ccc(-c3cc4c(N5CCN(C(=O)OC6CC6)CC5)ccnn4c3)cc2)CC1` [Compound 795] the same measures were less than 10 nM and less than 100 nM.
For `CCOC(=O)N1CCN(c2ccnn3cc(-c4ccc([C@]5(OC)CCCNC5)cn4)cc23)CC1` [Compound 796] the same measures were less than 10 nM and less than 100 nM.
In the case of `CCO[C@@]1(c2ccc(-c3cc4c(N5CCN(C(=O)NC(C)C)CC5)ccnn4c3)nc2)CCCNC1` [Compound 797], the IC50 is less than 10 nM in experiment [1] and less than 100 nM in experiment [2].
For `CCO[C@]1(c2ccc(-c3cc4c(N5CCN(C(=O)NC(C)C)CC5)ccnn4c3)nc2)CCCNC1` [Compound 798] the same measures were less than 10 nM and less than 100 nM.
For `COC1(c2ccc(-c3cc4c(N5CCN(C(=O)OC6COC6)CC5)ccnn4c3)cc2)CCOCC1` [Compound 799] the same measures were less than 10 nM and less than 100 nM.
For `CO[C@]1(c2ccc(-c3cc4c(N5CCN(C(=O)OC6COC6)CC5)ccnn4c3)nc2)CCCNC1` [Compound 800] the same measures were less than 10 nM and less than 100 nM.
Consider `CO[C@@]1(c2ccc(-c3cc4c(N5CCN(C(=O)OC6COC6)CC5)ccnn4c3)nc2)CCCNC1` [Compound 801], for which the IC50 in experiment [1] was less than 10 nM; in experiment [2], less than 100 nM.
For `CCOC(=O)N1CCN(c2ccnn3cc(-c4ccc(C5(OC)CCNC(C)(C)C5)cn4)cc23)CC1` (centres unmarked) [Compound 802] the same measures were less than 10 nM and less than 100 nM.
Regarding `CC(C)NC(C)(CO)c1ccc(-c2cc3c(N4CCN(C(=O)OC5COC5)CC4)ccnn3c2)cc1` (centres unmarked) [Compound 804], the IC50 in experiment [1] is less than 10 nM; in experiment [2], less than 100 nM.
For `CCN(CC)[C@@H](CO)c1ccc(-c2cc3c(N4CCN(C(=O)OC5COC5)CC4)ccnn3c2)cc1` [Compound 805] the same measures were less than 10 nM and less than 100 nM.
For `O=C(C1CC1)N1CCN(c2ccnn3cc(-c4ccc(C5(C(F)(F)F)CCNCC5)cc4)cc23)CC1` [Compound 808] the same measures were less than 10 nM and less than 100 nM.
For `CO[C@@]1(c2ccc(-c3cc4c(N5CCN(C(=O)[C@H]6C[C@H](C#N)C6)CC5)ccnn4c3)cc2)CCCNC1` [Compound 809] the same measures were less than 10 nM and less than 100 nM.
